The results in this text go back to US8785452B2, “Anti-infective compounds” (priority 2008, dated 2014).

Where two headings read alike, the source gives them in different places.

As usually defined, the inhibition is the relative decrease from the control value, in per cent.

The subject of data set [1] is Raw264.7 cells. In words: Cell number (CellNb) from image analysis of the phenotypic cell-based assay. To be noted: for Primary QIM CellNb: primary screen, 20 μM; for QIM Confirm CellNb 2 uM: confirmation.
Data set [2] relates to Raw264.7 cells. To be noted: mouse, 5 days; for Primary QIM CellNb: 20 μM.
The test system of data set [3] is M. tuberculosis H37Rv-GFP. In words: microbe, parasite or virus in culture. In kind it is cell-based, Mycobacterium tuberculosis. As to conditions: Mycobacterium tuberculosis, H37RV, Macrophage.
Setting [4] is: confirmation, 20 uM, read-out: QIM Confirm % Inhibition 20 uM.
[5] abbreviates: primary screen, 20 μM, read-out: Primary QIM % Inhibition.

As to `CN(C)c1ccc(/C=N/NC(=O)c2ccncc2)cc1` [IPK 000 042 96], the “Primary QIM CellNb” value in data set [1] was determined as 216.3; in data set [2], 101.1. In addition, the inhibition at 20 µM amounted to 105% in data set [3] (setting [4]) and 84.3% in data set [3] (setting [5]).

Consider `c1cc2c(cc1C13CC4CC(CC(C4)C1)C3)c1c3n2CCNC3CCC1` (stereo not shown) [IPK 000 068 87], for which the “Primary QIM CellNb” value in data set [1] is 156.8; in data set [2], −12.0. Further, the inhibition at 20 µM is 71.4% in data set [3] (setting [4]) and 73.1% in data set [3] (setting [5]).

With `O=C(Nc1nccs1)c1ccc(COc2ccc(Cl)cc2)o1` [IPK 000 124 54], the “Primary QIM CellNb” value in data set [1] is recorded as 503.3; in data set [2], 16.4. Further, the figures for the inhibition at 20 µM in data set [3] (setting [4]) and in data set [3] (setting [5]) were 75% and 75.5%, respectively.

As to `CCCC(=O)/N=C(\N)Nc1nc2ccccc2o1` [IPK 000 122 62], the “Primary QIM CellNb” value in data set [1] is 131.5; in data set [2], 26.2. Further, the inhibition at 20 µM was determined as 65.1% in data set [3] (setting [4]) and 62.8% in data set [3] (setting [5]).

With `CC(C)c1ccc(/C=N/NC(=O)c2ccncc2)cc1` [IPK 000 043 32], the figures for the “Primary QIM CellNb” value in data set [1] and in data set [2] were 164.0 and 94.5, respectively. The figures for the inhibition at 20 µM in data set [3] (setting [4]) and in data set [3] (setting [5]) were 102% and 60.5%, respectively.

As to `COc1ccc(OC)c(/C=N/NC(=O)c2ccncc2)c1` [IPK 000 042 93], the “Primary QIM CellNb” value in data set [1] was 321.8; in data set [2], 105.1. Also, the inhibition at 20 µM in data set [3] (setting [4]) was determined as 106%; in data set [3] (setting [5]), 109%.

Consider `NNC(=O)c1ccc(COc2cc(Cl)ccc2Cl)o1` [IPK 000 123 02], for which the “Primary QIM CellNb” value in data set [1] is 411.8; in data set [2], 45.3. Besides, the inhibition at 20 µM is 78.2% in data set [3] (setting [4]) and 76.8% in data set [3] (setting [5]).

Regarding `O=C(COc1ccccc1-c1ccccc1)N/N=C\c1ccc([N+](=O)[O-])s1` [IPK 000 103 28], the “Primary QIM CellNb” value stood at 134.3 in data set [1] and 49.5 in data set [2]. For the same molecule, the inhibition at 20 µM in data set [3] (setting [4]) was found to be 71.3%; in data set [3] (setting [5]), 71.1%.

As for `CCN(CC)c1ccc(/C=N/NC(=O)c2cccs2)c(O)c1` [IPK 000 103 76], the entries for the “Primary QIM CellNb” value in data set [1] and in data set [2] were 47.8 and −1.7, respectively. Further, the inhibition at 20 µM came out at 74.5% in data set [3] (setting [4]) and 85.7% in data set [3] (setting [5]).

As to `Cc1ccc(NC(=O)c2ccc([N+](=O)[O-])cc2Cl)cc1C` [IPK 000 047 15], the “Primary QIM CellNb” value amounted to 281.8 in data set [1] and 61.1 in data set [2]. The inhibition at 20 µM in data set [3] (setting [4]) is 85.8%; in data set [3] (setting [5]) it was 69.7%.

As to `O=C(Nc1sc2c(c1C(=O)Nc1ccccc1)CCC2)c1cccs1` [IPK 000 042 30], the “Primary QIM CellNb” value turned out to be 193.8 in data set [1] and 75.2 in data set [2]. Further, the inhibition at 20 µM in data set [3] (setting [4]) came to 95.9%; in data set [3] (setting [5]), 73.7%.

In the case of `O=C(N/N=C1\C(=O)N(Cc2cccc3ccccc23)c2ccccc21)c1cc(-c2ccccc2)n[nH]1` [IPK 000 103 78], the “Primary QIM CellNb” value in data set [1] turned out to be 263.5; in data set [2], 3.5. In addition, the results for the inhibition at 20 µM in data set [3] (setting [4]) and in data set [3] (setting [5]) were 98% and 94.6%, respectively.

For the molecule `CCCCN(CCCC)C(=O)c1ccc(C(C)(C)C)cc1` [IPK 000 067 60], the entries for the “QIM Confirm CellNb 2 uM” value in data set [1] and in data set [2] were 179.1 and 99.7, respectively. Also, the “Primary QIM CellNb” value in data set [1] came to 164.3; in data set [2], 25.8. Besides, the results for the inhibition at 20 µM in data set [3] (setting [4]) and in data set [3] (setting [5]) were 46.6% and 63.4%, respectively.

Turning to `O=C(NC1CCCCC1)c1ccc(COc2cc(Cl)ccc2Cl)o1` [IPK 000 123 90], the “Primary QIM CellNb” value in data set [1] came out at 205.0; in data set [2], 26.7. Further, the inhibition at 20 µM was 87.7% in data set [3] (setting [4]) and 73.1% in data set [3] (setting [5]).

Consider `O=C(N/N=C/c1cccs1)c1ccncc1` [IPK 000 043 33], for which the entries for the “Primary QIM CellNb” value in data set [1] and in data set [2] were 270.8 and 94.5, respectively. Also, the inhibition at 20 µM in data set [3] (setting [4]) was determined as 104%; in data set [3] (setting [5]), 83%.

In the case of `COc1cccc(/C=N/NC(=O)c2ccncc2)c1OC` [IPK 000 043 02], the entries for the “Primary QIM CellNb” value in data set [1] and in data set [2] were 229.5 and 98.7, respectively. The figures for the inhibition at 20 µM in data set [3] (setting [4]) and in data set [3] (setting [5]) were 99.8% and 81.1%, respectively.

Take `O=C(CS)Nc1ccccc1Cl` [IPK 000 108 27]: the “Primary QIM CellNb” value is listed as 171.0 in data set [1] and 19.0 in data set [2]. Further, the inhibition at 20 µM in data set [3] (setting [4]) amounted to 44.1%; in data set [3] (setting [5]), 54.7%.

For the molecule `CN1C/C(=C\c2ccccc2Br)C(=O)/C(=C/c2ccccc2Br)C1` [IPK 000 102 36], the “Primary QIM CellNb” value is given as 193.3 in data set [1] and 4.4 in data set [2]. Besides, the results for the inhibition at 20 µM in data set [3] (setting [4]) and in data set [3] (setting [5]) were 66.5% and 65.6%, respectively.

On to `O=[N+]([O-])c1ccc(O)c(/C=N/c2ccccc2O)c1` [IPK 000 044 20], for which the results for the “Primary QIM CellNb” value in data set [1] and in data set [2] were 135.0 and 6.3, respectively. Further, the inhibition at 20 µM in data set [3] (setting [4]) was 30.7%; in data set [3] (setting [5]), -67.5%.

As for `O=C(N/N=C/c1ccccc1Cl)c1ccncc1` [IPK 000 043 05], the figures for the “Primary QIM CellNb” value in data set [1] and in data set [2] were 228.8 and 101.6, respectively. The “QIM Confirm CellNb 20 uM” value in data set [2] (20 uM) came to 80.2. Besides, the inhibition at 20 µM in data set [3] (setting [4]) came out at 104%; in data set [3] (setting [5]) it was 97.1%.

As to `CCOc1nnc(NS(=O)(=O)c2ccc(/N=C/c3ccccc3O)cc2)s1` [IPK 000 080 01], the figures for the “Primary QIM CellNb” value in data set [1] and in data set [2] were 409.8 and 27.4, respectively. Besides, the inhibition at 20 µM was 56.6% in data set [3] (setting [4]) and 14.3% in data set [3] (setting [5]).

Take `CCOC(=O)/C=C/C(=O)Nc1sc(Cc2ccccc2)c(C)c1C(N)=O` [IPK 000 110 16]: the results for the “Primary QIM CellNb” value in data set [1] and in data set [2] were 179.5 and 6.0, respectively. In addition, the inhibition at 20 µM is 86% in data set [3] (setting [4]) and 59% in data set [3] (setting [5]).

`COc1cccc(C2Nc3ccc(C(=O)O)cc3C3C=CCC32)c1` (stereo not shown) [IPK 000 112 80]: the “QIM Confirm CellNb 2 uM” value in data set [1] came to 189.0; in data set [2] it was 98.3. The “Primary QIM CellNb” value came out at 152.0 in data set [1] and 10.7 in data set [2]. The inhibition at 20 µM in data set [3] (setting [4]) came to 55.6%; in data set [3] (setting [5]) it was 41.1%.

In the case of `O=C(N/N=C/c1cccc(Cl)c1Cl)c1ccncc1` [IPK 000 043 10], the results for the “Primary QIM CellNb” value in data set [1] and in data set [2] were 176.8 and 92.7, respectively. The inhibition at 20 µM amounted to 98.3% in data set [3] (setting [4]) and 14.3% in data set [3] (setting [5]).

In the case of `Oc1ccccc1/N=C/c1cc(Br)cc(Br)c1O` [IPK 000 044 41], the “Primary QIM CellNb” value in data set [1] is 126.8; in data set [2], 34.0. For the same molecule, the inhibition at 20 µM in data set [3] (setting [4]) was 29.9%; in data set [3] (setting [5]), -120%.

Take `O=C1CSC(N/N=C/c2cc([N+](=O)[O-])ccc2O)N1` (stereo not shown) [IPK 000 109 00]: the “Primary QIM CellNb” value in data set [1] was 87.8; in data set [2], 23.8. Moreover, the inhibition at 20 µM in data set [3] (setting [4]) is 8.2%; in data set [3] (setting [5]), -7.8%.
